Results from US20230399341A1, “7-PHENYL SUBSTITUTED 2-AMINOQUINAZOLINE INHIBITORS OF HPK1” (MERCK SHARP & DOHME LLC, priority 2020, published 2023).

Target: T1, Human HPK1, catalytic domain (Homo sapiens, UniProt Q92918)
T1 sequence (Q92918 1-346): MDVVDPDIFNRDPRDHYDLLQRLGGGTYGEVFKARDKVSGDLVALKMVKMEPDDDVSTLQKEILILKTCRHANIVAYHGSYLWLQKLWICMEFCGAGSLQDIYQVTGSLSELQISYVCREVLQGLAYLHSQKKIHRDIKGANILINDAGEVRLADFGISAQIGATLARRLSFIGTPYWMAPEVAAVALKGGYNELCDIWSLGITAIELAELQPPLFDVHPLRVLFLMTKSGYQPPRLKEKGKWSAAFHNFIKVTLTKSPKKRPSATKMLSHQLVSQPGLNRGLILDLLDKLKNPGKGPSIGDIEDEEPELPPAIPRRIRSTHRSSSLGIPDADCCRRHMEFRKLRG
Assay: HPK1-SLP76 TR-FRET Assay
Format: biochemical
Details: 75 pM HPK1, ATP 10 uM, SLP76 10 nM, 30 min pre-incubation, 60 min reaction

Structure (SMILES)	IC50
COc1cc2c(cc1Nc1ncc3ccc(-c4ccc(NCCN5CCOCC5)nc4)cc3n1)CNCC2 [Compound 1-48, N-(6-methoxy-1,2,3,4-tetrahydroisoquinolin-7-yl)-7-(6-{[2-(morpholin-4-yl)ethyl]amino}pyridin-3-yl)quinazolin-2-amine]	387 nM
COc1cc2c(cc1Nc1ncc3c(N)cc(-c4cnc5c(c4C)NCCO5)cc3n1)CN(C)CC2 [Compound 2-40, N~2~-(6-methoxy-2-methyl-1,2,3,4-tetrahydroisoquinolin-7-yl)-7-(8-methyl-2,3-dihydro-1H-pyrido[2,3-b][1,4]oxazin-7-yl)quinazoline-2,5-diamine]	0.633 nM
Cc1c(-c2cc3nc(Nc4ccc(CS(=O)(=O)N5CCCC5)cc4)ncc3c(N)c2F)cnc2c1NCCO2 [Compound 2-115, 6-fluoro-7-(8-methyl-2,3-dihydro-1H-pyrido[2,3-b][1,4]oxazin-7-yl)-N~2~- {4-[(pyrrolidine-1-sulfonyl)methyl]phenyl} quinazoline-2,5-diamine]	0.12 nM
COc1cc2c(cc1Nc1ncc3ccc(NCC(=O)N(C)C)cc3n1)CN(C)CC2 [Compound 3-71, N~2~-{2-[(6-methoxy-2-meth-yl-1,2,3,4-tetrahydroisoquinolin-7-yl)amino]quinazolin-7-yl}-N,N-dimethylglycinamide]	91.7 nM
Cc1c(-c2cc3nc(Nc4ccc5c(c4)CN(C)CC5(C)C)ncc3c(N)c2F)cnc2c1NCCO2 [Compound 2-150, 6-fluoro-7-(8-methyl-2,3-dihydro-1H-pyrido[2,3-b][1,4]oxazin-7-yl)-N~2~- (2,4,4-trimethyl-1,2,3,4-tetrahydroisoquinolin-7-yl)quinazoline-2,5-diamine]	0.0614 nM
COc1cc2c(cc1Nc1ncc3c(N)c(F)c(-c4cnc5c(c4C)NCCO5)cc3n1)CN(C(C)=O)CC2 [Compound 2-12, 1-[7-{[5-amino-6-fluoro-7-(8-methyl-2,3-dihydro-1H-pyrido[2,3-b][1,4]oxazin-7-yl)quinazolin-2-yl]amino}-6-methoxy-3,4-dihydroisoquinolin-2(1H)-yl]ethan-1-one]	685 nM
COc1cc2c(cc1Nc1ncc3ccc(-c4ccc(N)nc4)cc3n1)CNCC2 [Compound 1-27, 7-(6-aminopyridin-3-yl)-N-(6-methoxy-1,2,3,4-tetrahydroisoquinolin-7-yl)quinazolin-2-amine]	9.91 nM
COc1cc2c(cc1Nc1ncc3ccc(-c4cccc5nc(N)[nH]c45)cc3n1)CNCC2 [Compound 1-73]	88.5 nM
COc1cc2c(cc1Nc1ncc3ccc(-c4c(C)cccc4F)cc3n1)CNCC2 [Compound 1-94, 7-(2-fluoro-6-methylphenyl)-N-(6-methoxy-1,2,3,4-tetrahydroisoquinolin-7-yl)quinazolin-2-amine]	81.3 nM
COc1cc2c(cc1Nc1ncc3ccc(-c4cccc(CN)c4)cc3n1)CNCC2 [Compound 1-61, 7-[3-(aminomethyl)phenyl]-N-(6-methoxy-1,2,3,4-tetrahydroisoquinolin-7-yl)quinazolin-2-amine]	13.9 nM
CC(=O)N1CCCC1c1ccc(Nc2ncc3c(N)c(F)c(-c4cnc5c(c4C)NCCO5)cc3n2)cc1 (single isomer, unassigned) [Compound 2-28, (R or S)-1-[2-(4-{[5-amino-6-fluoro-7-(8-methyl-2,3-dihydro-1H-pyrido[2,3-b][1,4]oxazin-7-yl)quinazolin-2-yl]amino}phenyl)pyrrolidin-1-yl]ethan-1-one]	0.149 nM
COc1cc2c(cc1Nc1ncc3ccc(OCc4ccc5c(c4)CNC5)cc3n1)CN(C)CC2 [Compound 4-2, 7-[(2,3-dihydro-1H-iso-indol-5-yl)methoxy]-N-(6-methoxy-2-methyl-1,2,3,4-tetrahydroisoquinolin-7-yl)-quinazolin-2-amine]	4.67 nM
Cc1c(-c2c(F)c(N)c3cnc(Nc4ccc5c(c4)CN(C)CC5)nc3c2Cl)cnc2c1NCCO2 (single isomer, unassigned) [Compound 2-180, (+ or −)-8-chloro-6-fluoro-7-(8-methyl-2,3-dihydro-1H-pyrido[2,3-b][1,4]oxazin-7-yl)-N~2~- (2-methyl-1,2,3,4-tetrahydroisoquinolin-7-yl)quinazoline-2,5-diamine]	0.0248 nM
Cc1c(-c2cc3nc(Nc4ccc5c(c4)C4CCC5N4C)ncc3c(N)c2F)cnc2c1NCCO2 (stereo not drawn) [Compound 2-121, 6-fluoro-7-(8-methyl-2,3-dihydro-1H-pyrido[2,3-b][1,4]oxazin-7-yl)-N~2~- (9-methyl-1,2,3,4-tetrahydro-1,4-epiminonaphthalen-6-yl)quinazoline-2,5-diamine]	0.0248 nM
COc1cc2c(cc1Nc1ncc3ccc(-c4cc(NC(C)=O)ccc4C)cc3n1)CNCC2 [Compound 1-85, N-(3-{2-[(6-methoxy-1,2,3,4-tetrahydroisoquinolin-7-yl)amino]quinazolin-7-yl}-4-methylphenyl)acetamide]	462 nM
COc1cc2c(cc1Nc1ncc3ccc(NC4(C(=O)N(C)C)CC4)cc3n1)CN(C)CC2 [Compound 3-66, 1-({2-[(6-methoxy-2-methyl-1,2,3,4-tetrahydroisoquinolin-7-yl)amino]quinazolin-7-yl}-amino)-N,N-dimethylcyclopro-pane-1-carboxamide]	294 nM
COc1cc2c(cc1Nc1ncc3ccc(Nc4cccc(C#N)n4)cc3n1)CN(C)CC2 [Compound 3-27, 6-({2-[(6-methoxy-2-methyl-1,2,3,4-tetrahydroisoquinolin-7-yl)amino]quinazolin-7-yl}-amino)-pyridine-2-carbonitrile]	22.5 nM
Cc1c(-c2cc3nc(Nc4ccc(C(C)S(C)(=O)=O)cc4)ncc3c(N)c2F)cnc2c1NCCO2 (single isomer, unassigned) [Compound 2-63, (R or S)-6-fluoro-7-(8-methyl-2,3-dihydro-1H-pyrido[2,3-b][1,4]oxazin-7-yl)-N˜2˜-{4-[1-(methylsulfonyl)ethyl]phenyl}quinazoline-2,5-diamine]	0.0861 nM
COc1cc2c(cc1Nc1ncc3ccc(-c4cccc(C(C)(C)NC(C)=O)c4)cc3n1)CN(C)CC2 [Compound 1-100, N-[2-(3-{2-[(6-methoxy-2-methyl-1,2,3,4-tetrahydroisoquinolin-7-yl)amino]quinazolin-7-yl}phenyl)propan-2-yl]acetamide]	281 nM
COc1cc2c(cc1Nc1ncc3ccc(N[C@H]4CCCOCC4)cc3n1)CN(C)CC2 [Compound 3-47, (S)-N2-(6-methoxy-2-methyl-1,2,3,4-tetrahydroisoquinolin-7-yl)-N7-(oxepan-4-yl)quinaz-oline-2,7-diamine]	170 nM
COc1cc2c(cc1Nc1ncc3ccc(-c4cnc(C#N)c(C)c4)cc3n1)CN(C)CC2 [Compound 1-104, 5-{2-[(6-methoxy-2-methyl-1,2,3,4-tetrahydroisoquinolin-7-yl)amino]quinazolin-7-yl}-3-methylpyridine-2-carbonitrile]	212 nM
Cc1c(-c2cc3nc(Nc4ccc5c(c4)COCC5)ncc3c(N)c2F)cnc2c1NCCO2 [Compound 2-118, N~2~-(3,4-dihydro-1H-2-benzopyran-7-yl)-6-fluoro-7-(8-methyl-2,3-dihydro-1H-pyrido[2,3-b][1,4]oxazin-7-yl)quinazoline-2,5-diamine]	0.0607 nM
COc1cc2c(cc1Nc1ncc3ccc(NCC4CC(=O)N(C)C4)cc3n1)CN(C)CC2 (racemic) [Compound 3-59, (S and R)-4-[({2-[(6-methoxy-2-methyl-1,2,3,4-tetrahydroiso-quinolin-7-yl)amino]quinazolin-7-yl}amino)methyl]-1-methyl-pyrrolidin-2-one]	365 nM
COc1cc2c(cc1Nc1ncc3ccc(-c4c(C)cccc4F)cc3n1)CN(C)CC2 [Compound 1-5, 7-(2-fluoro-6-methylphenyl)-N-(6-methoxy-2-methyl-1,2,3,4-tetrahydroisoquinolin-7-yl)quinazolin-2-amine]	230 nM
COc1cc2c(cc1Nc1ncc3ccc(-c4cc(C#N)ccc4F)cc3n1)CNCC2 [Compound 1-90, 4-fluoro-3-{2-[(6-methoxy-1,2,3,4-tetrahydroisoquinolin-7-yl)amino]quinazolin-7-yl}benzonitrile]	393 nM
CNC(=O)Cc1ccc(Nc2ncc3c(N)c(F)c(-c4cnc5c(c4C)NCCO5)cc3n2)cc1 [Compound 2-13]	0.0496 nM
Cc1c(-c2cc3nc(Nc4ccc(C5CCN(C)C5=O)cc4)ncc3cc2F)cnc2c1NCCO2 (single isomer, unassigned) [Compound 1-125, (R or S)-3-(4-{[6-fluoro-7-(8-methyl-2,3-dihydro-1H-pyrido[2,3-b][1,4]oxazin-7-yl)quinazolin-2-yl]amino}phenyl)-1-methylpyrrolidin-2-one]	0.0606 nM
Cc1c(-c2cc3nc(Nc4ccc5c(c4)CN(C)CC5)ncc3c(N)c2F)cnc2cc[nH]c12 [Compound 2-130, 6-fluoro-7-(7-methyl-1H-pyrrolo[3,2-b]pyridin-6-yl)-N~2~-(2-methyl-1,2,3,4-tetrahydroisoquinolin-7-yl)quinazoline-2,5-diamine]	0.103 nM
COc1cc2c(cc1Nc1ncc3c(N)c(F)c(-c4cnc5c(c4C)NCCO5)c(Cl)c3n1)CN(C(C)C)CC2 [Compound 2-102, (+ or −)-8-chloro-6-fluoro-N~2~-[6-methoxy-2-(propan-2-yl)-1,2,3,4-tetrahydroisoquinolin-7-yl]-7-(8-methyl-2,3-dihydro-1H-pyrido[2,3-b][1,4]oxazin-7-yl)quinazoline-2,5-diamine]	0.204 nM
COc1cc2c(cc1Nc1ncc3ccc(-c4cc(N)cc(C#N)c4)cc3n1)CNCC2 [Compound 1-62, 3-amino-5-{2-[(6-methoxy-1,2,3,4-tetrahydroisoquinolin-7-yl)amino]quinazolin-7-yl}benzonitrile]	114 nM
